Assay results published in patent US11319311B2, “Crystalline forms of Actinomycin D for treatment of cancer” (TRANSGENEX NANOBIOTECH, INC., priority 2018, dated 2022).
pIC50: −log10 of the molar value. Like-named read-outs stand apart in the source and are kept apart here.

Test system: SK-ES-1
Assay: Monolayer cell culture IC50 (CellTiter-Glo viability), SK-ES-1
Assay type: cell-based, human
Settings: Sarcoma, SK-ES-1, monolayer, 72 hours treatment, average of three replications
Method: Cancer cell lines listed in Table 1 were subjected for testing anti-cancer potency or the half maximal inhibitory concentration (IC50) of the D-Actinomycin (DACT) molecular complexes.
The SK-ES-1, U-2 OS, and SAOS-2 cells were cultured in a growth medium that is ATCC-formulated McCoy's 5a Medium Modified, Catalog No. 30-2007. The PC-3, PANC-1, SK-Mel-5, A549, H460, and H1299 were cultured in a growth medium that is ATCC-formulated Dulbecco's Modified Eagle's Medium (DMEM), Catalog No. 30-2002. The cells were seeded on 96-well microtiter plates with 3500 cells per well and cultured in an incubator (Model 3120, Thermo Scientific, USA) with a constant temperature at 37° C. and 5% carbon dioxide (CO2) gas for 24 hours.
The new DACT-molecular complexes were made into a series with concentration of 200 nM to 40 nM, 8 nM, 1.6 nM, 0.32 nM, and 0.064 nM. 100 μl of each solution was then added into each well to bring out the final concentration of the drug treatment at 100 nM, 20 nM, 4 nM, 0.8 nM, 0.16 nM, or 0.032 nM, respectively.
The treated cells in the 96 well plate was then further cultured at the same conditions for 72 hours and then subjected for a final cell viability measurement. The measurement used a homogeneous method to determine the number of metabolically active cells presented in each of treatments. A testing reagent for the measurement is a mixture solution of the CellTiter-Glo® 2.0 reagent (CTG, Promega Cat #G9243, USA) and growth medium in 1:1 ratio in this respect.
The 96-well plate with the new molecular complex treated cells was taken out from incubator after the 72 hours of incubation, and the treatment solution in each well was removed using a multichannel pipette, and 100 μl of the testing reagent were added into each well. The plate was then placed on a plate shaker for 15 min. The plate was covered with a piece of aluminum foil to protect the CTG luminescence during the shaking time.
Then 90 μl of the 100 μl testing reagent were transferred into an opaque-walled 96-well plate for the CTG luminescence reading on a plate reader (SynergyH4 Hybrid Reader, Biotek, USA). The luminescence intensity of each treatment was positively correlated with the number of cells survived during the treatments.
All the treatment data was normalized by comparing with the control samples that had only growth medium without any molecular complexes. The half maximal inhibitory concentration (IC50) data was calculated using the nonlinear regression model and dose-responses (inhibition) curve built in the software. Each of treatments was performed in three replications each time and repeated three times for validation. The IC50 average […] (Avg) and standard deviation (STDV) were calculated based on the three replications.

SMILES: CCCOC(=O)c1ccc(O)cc1.Cc1c2oc3c(C)ccc(C(=O)NC4C(=O)NC(C(C)C)C(=O)N5CCCC5C(=O)N(C)CC(=O)N(C)C(C(C)C)C(=O)OC4C)c3nc-2c(C(=O)NC2C(=O)NC(C(C)C)C(=O)N3CCCC3C(=O)N(C)CC(=O)N(C)C(C(C)C)C(=O)OC2C)c(N)c1=O (stereo not drawn) [DACT-propylparaben]
- pIC50 (Test I, read-out: IC50 Test (I) Avg): 9.12
- pIC50 (Test II, read-out: IC50 Test (II) Avg): 9.47
- pIC50 (Test III, read-out: IC50 Test (III) Avg): 9.31
